Reference: article PMC10648852, “Molecular drivers of resistance to sulbactam-durlobactam in contemporary clinical isolates of Acinetobacter baumannii” (Antimicrobial Agents and Chemotherapy, 2023)
Like-named read-outs stand apart in the source and are kept apart here.

Tests used:
A. baumannii PBP3 S395F = system: A. baumannii PBP3 S395F; parameters: method as in McLeod et al. (2018); conditions: average ± SD, ref McLeod et al. (2018); cited from earlier work
A. baumannii PBP3 S390T = system: A. baumannii PBP3 S390T; parameters: method as in McLeod et al. (2018); conditions: average ± SD, ref McLeod et al. (2018); cited from earlier work
[1] = system: ABC clinical isolates with SUL-DUR MIC > 4 µg/mL; assay: microbe, parasite or virus in culture; type: cell-based, Acinetobacter baumannii-calcoaceticus complex
How it was run: (§1)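 Broth microdilution MICs following CLSI methods, interpreted with CLSI breakpoints where available. Sulbactam tested as twofold dilutions combined with fixed 4 µg/mL durlobactam.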

[2] = system: A. baumannii wild-type PBP3; assay: Acylation rate constant (kinact/Ki), fluorescence anisotropy competition with BOCILLIN; conditions: Wildtype PBP3
[3] = system: A. pittii clinical isolates; assay: microbe, parasite or virus in culture; type: cell-based; conditions: Acinetobacter pittii
How it was run: as §1

[4] = system: A. baumannii clinical isolates; assay: microbe, parasite or virus in culture; type: cell-based; conditions: Acinetobacter baumannii
How it was run: as §1

[5] = system: A. nosocomialis clinical isolate; assay: microbe, parasite or virus in culture; type: cell-based; conditions: Acinetobacter nosocomialis, isolate ARC7023 (IHMA 2118812), France, BSI, 2019, read-out: MIC
How it was run: as §1

CC1(C)[C@H](C(=O)O)N2C(=O)C[C@H]2S1(=O)=O [sulbactam]
0.03 ± 0.02 ([3]) M^-1s^-1: k inact/K i (A. baumannii PBP3 S390T)
32 µg/mL: MIC ([4]; isolate ARC6823 (IHMA 1620872), Greece, SSSI, 2017, read-out: MIC) | MIC ([4]; isolate ARC7019 (IHMA 2114463), Thailand, RTI, 2019, read-out: MIC) | MIC ([4]; isolate ARC7020 (IHMA 2045326), Guatemala, RTI, 2019, read-out: MIC) | MIC ([4]; isolate ARC7022 (IHMA 2045319), Guatemala, IAI, 2019, read-out: MIC) | MIC ([4]; isolate ARC7025 (IHMA 2002121), Spain, RTI, 2019, read-out: MIC) | MIC ([4]; isolate ARC7026 (IHMA 2104494), Guatemala, BSI, 2019, read-out: MIC) | MIC ([4]; isolate ARC7086 (IHMA 2207563), Israel, RTI, 2020, read-out: MIC) | MIC [5]
100%: %NS (% non-susceptibility) ([1]; 64 non-clonal ABC isolates, 2023 CLSI breakpoints plus FDA breakpoint of 4 µg/mL for SUL-DUR) | % WT [2]
16 µg/mL: MIC ([4]; isolate ARC6808 (IHMA 1557168), Spain, RTI, 2017, read-out: MIC) | MIC ([4]; isolate ARC6955 (IHMA 1825425), United States, RTI, 2018, read-out: MIC)
8 µg/mL: MIC ([1]; Acinetobacter, read-out: MIC Min) | MIC ([4]; isolate ARC7161 (IHMA 2429252), Ukraine, RTI, 2021, read-out: MIC)
15 ± 3 ([10]) M^-1s^-1: k inact/K i ([2]; average ± SD)
0.63 ± 0.06 ([3]) M^-1s^-1: k inact/K i (A. baumannii PBP3 S395F)
64 µg/mL: MIC ([3]; isolate ARC6949 (IHMA 1898982), Romania, RTI, 2018, read-out: MIC) | MIC ([3]; isolate ARC7087 (IHMA 2212062), Colombia, BSI, 2020, read-out: MIC) | MIC ([4]; isolate ARC6644 (IHMA 1420327), Mexico, UTI, 2016, read-out: MIC) | MIC ([4]; isolate ARC6648 (IHMA 1407634), Spain, RTI, 2016, read-out: MIC) | MIC ([4]; isolate ARC6650 (IHMA 1457337), Argentina, RTI, 2016, read-out: MIC) | MIC ([4]; isolate ARC6800 (IHMA 1557526), Turkey, RTI, 2017, read-out: MIC) | MIC ([4]; isolate ARC6801 (IHMA 1662094), Thailand, RTI, 2017, read-out: MIC) | MIC ([4]; isolate ARC6805 (IHMA 1558650), United States, RTI, 2017, read-out: MIC) | MIC ([4]; isolate ARC6818 (IHMA 1683261), Thailand, RTI, 2017, read-out: MIC) | MIC ([4]; isolate ARC6824 (IHMA 1625487), Argentina, BSI, 2017, read-out: MIC) | MIC ([4]; isolate ARC6950 (IHMA 1820064), Israel, RTI, 2018, read-out: MIC) | MIC ([4]; isolate ARC6953 (IHMA 1909827), Turkey, IAI, 2018, read-out: MIC) | MIC ([4]; isolate ARC7014 (IHMA 2045328), Guatemala, IAI, 2019, read-out: MIC) | MIC ([4]; isolate ARC7016 (IHMA 2148441), Brazil, BSI, 2019, read-out: MIC) | MIC ([4]; isolate ARC7017 (IHMA 2148446), Brazil, BSI, 2019, read-out: MIC) | MIC ([4]; isolate ARC7024 (IHMA 2059448), Turkey, RTI, 2019, read-out: MIC) | MIC ([4]; isolate ARC7083 (IHMA 2163687), United States, RTI, 2020, read-out: MIC) | MIC ([4]; isolate ARC7093 (IHMA 2258783), United States, RTI, 2020, read-out: MIC) | MIC ([4]; isolate ARC7095 (IHMA 2320843), Turkey, BSI, 2020, read-out: MIC) | MIC ([4]; isolate ARC7160 (IHMA 2458626), Thailand, RTI, 2021, read-out: MIC)
> 64 µg/mL: MIC50 ([1]; Acinetobacter) | MIC90 ([1]; Acinetobacter) | MIC ([1]; Acinetobacter, read-out: MIC Max) | MIC ([3]; isolate ARC6951 (IHMA 1776233), Philippines, RTI, 2018, read-out: MIC) | MIC ([3]; isolate ARC6952 (IHMA 1899008), Romania, RTI, 2018, read-out: MIC) | MIC ([4]; isolate ARC6645 (IHMA 1435703), France, UTI, 2016, read-out: MIC) | MIC ([4]; isolate ARC6646 (IHMA 1484127), United States, RTI, 2016, read-out: MIC) | MIC ([4]; isolate ARC6647 (IHMA 1386786), Argentina, RTI, 2016, read-out: MIC) | MIC ([4]; isolate ARC6652 (IHMA 1465642), Belgium, RTI, 2016, read-out: MIC) | MIC ([4]; isolate ARC6653 (IHMA 1308777), Vietnam, RTI, 2016, read-out: MIC) | MIC ([4]; isolate ARC6799 (IHMA 1562935), Spain, UTI, 2017, read-out: MIC) | MIC ([4]; isolate ARC6802 (IHMA 1557073), Spain, UTI, 2017, read-out: MIC) | MIC ([4]; isolate ARC6803 (IHMA 1589408), Belgium, UTI, 2017, read-out: MIC) | MIC ([4]; isolate ARC6809 (IHMA 1699528), Guatemala, RTI, 2017, read-out: MIC) | MIC ([4]; isolate ARC6810 (IHMA 1699548), Guatemala, RTI, 2017, read-out: MIC) | MIC ([4]; isolate ARC6812 (IHMA 1699530), Guatemala, RTI, 2017, read-out: MIC) | MIC ([4]; isolate ARC6813 (IHMA 1699543), Guatemala, UTI, 2017, read-out: MIC) | MIC ([4]; isolate ARC6814 (IHMA 1699512), Guatemala, RTI, 2017, read-out: MIC) | MIC ([4]; isolate ARC6815 (IHMA 1699513), Guatemala, RTI, 2017, read-out: MIC) | MIC ([4]; isolate ARC6816 (IHMA 1699521), Guatemala, RTI, 2017, read-out: MIC) | MIC ([4]; isolate ARC6817 (IHMA 1699523), Guatemala, RTI, 2017, read-out: MIC) | MIC ([4]; isolate ARC6819 (IHMA 1683267), Thailand, RTI, 2017, read-out: MIC) | MIC ([4]; isolate ARC6820 (IHMA 1647876), Argentina, RTI, 2017, read-out: MIC) | MIC ([4]; isolate ARC6821 (IHMA 1699517), Guatemala, RTI, 2017, read-out: MIC) | MIC ([4]; isolate ARC6822 (IHMA 1637626), Guatemala, RTI, 2017, read-out: MIC) | MIC ([4]; isolate ARC6937 (IHMA 1562926), Spain, UTI, 2017, read-out: MIC) | MIC ([4]; isolate ARC6954 (IHMA 1838192), Guatemala, SSSI, 2018, read-out: MIC) | MIC ([4]; isolate ARC7008 (IHMA 2009813), Thailand, BSI, 2019, read-out: MIC) | MIC ([4]; isolate ARC7009 (IHMA 2043611), United States, UTI, 2019, read-out: MIC) | MIC ([4]; isolate ARC7010 (IHMA 2043398), United States, RTI, 2019, read-out: MIC) | MIC ([4]; isolate ARC7011 (IHMA 2104553), Germany, RTI, 2019, read-out: MIC) | MIC ([4]; isolate ARC7012 (IHMA 2010001), Thailand, RTI, 2019, read-out: MIC) | MIC ([4]; isolate ARC7013 (IHMA 1962831), Argentina, RTI, 2019, read-out: MIC) | MIC ([4]; isolate ARC7015 (IHMA 2045327), Guatemala, UTI, 2019, read-out: MIC) | MIC ([4]; isolate ARC7018 (IHMA 2045454), Guatemala, IAI, 2019, read-out: MIC) | MIC ([4]; isolate ARC7021 (IHMA 1966347), Guatemala, RTI, 2019, read-out: MIC) | MIC ([4]; isolate ARC7082 (IHMA 2160640), Belgium, BSI, 2020, read-out: MIC) | MIC ([4]; isolate ARC7084 (IHMA 2189596), Germany, RTI, 2020, read-out: MIC) | MIC ([4]; isolate ARC7085 (IHMA 2205747), Guatemala, IAI, 2020, read-out: MIC) | MIC ([4]; isolate ARC7088 (IHMA 2215554), Turkey, BSI, 2020, read-out: MIC) | MIC ([4]; isolate ARC7089 (IHMA 2240345), Argentina, BSI, 2020, read-out: MIC) | MIC ([4]; isolate ARC7090 (IHMA 2244410), Poland, RTI, 2020, read-out: MIC) | MIC ([4]; isolate ARC7091 (IHMA 2244564), Australia, RTI, 2020, read-out: MIC) | MIC ([4]; isolate ARC7092 (IHMA 2258772), United States, BSI, 2020, read-out: MIC) | MIC ([4]; isolate ARC7094 (IHMA 2296423), Turkey, RTI, 2020, read-out: MIC) | MIC ([4]; isolate ARC7156 (IHMA 2455450), Greece, RTI, 2021, read-out: MIC) | MIC ([4]; isolate ARC7158 (IHMA 2523738), Italy, BSI, 2021, read-out: MIC) | MIC ([4]; isolate ARC7159 (IHMA 2456229), Malaysia, RTI, 2021, read-out: MIC) | MIC ([4]; isolate ARC7162 (IHMA 2411847), United States, BSI, 2021, read-out: MIC) | MIC ([4]; isolate ARC7163 (IHMA 2477704), United States, BSI, 2021, read-out: MIC)
